Where two headings read alike, the source gives them in different places.

Experiment [1] deals with mouse leukemia L1210 cells. Nature of the experiment: Effectiveness against mouse leukemia L1210 cells (in vitro test), cytotoxicity by trypan blue dye exclusion. Type of experiment: cell-based. Conditions: L1210 cells, 3 days, 37° C., read-out: IC50 (mean dose producing 50%-killing of tumor cells). The method, then:
Effectiveness against mouse leukemia L1210 cells (in vitro test)
A suspension of cells in culture medium was transferred into wells in a microplate in an amount of 1×10^5 L1210-cells/well. Test sample diluted with a culture medium was added to the suspension in each well, and the mixture was incubated on the medium at 37° C. for 3 days in an atmosphere of air containing 5% carbon dioxide.
Thereafter, the incubated cells were recovered from the microplate and the number of live cells was counted by the dye exclusion test using a 0.5% solution of trypan blue and by using a hemocytometer.

For experiment [2], the system named is Ehrlich solid tumor. Nature of the experiment: Test 2: Anti-tumor test against Ehrlich solid tumor. Type of experiment: in vivo, ddY/SLC mice. Conditions: i.p., days 1 through 9, tumor weight day 21; for inhibition in vivo at 100 mg/kg / inhibition in vivo at 50 mg/kg: Mus musculus, Ehrlich, ip, 504 h, read-out: Growth Inhibition Rate. On the procedure:
Anti-tumor test against Ehrlich solid tumor
Ehrlich tumor cells, 2×10^6, on Day 7 after intraperitoneal transplantation to ddY/SLC mice, were subcutaneously transplanted in the left abdomen of ddY/SLC mice (5week age, male)--10 to a group. The active component was intraperitoneally administered in a definite dose 24 hours after the transplantation. (administration: once per one day; 1 through 9 days)
Growth inhibition rate (%)=(C-T)/C×100
T: mean tumor weight in the active component-administered group
c: mean tumor weight in the control group

Take `CCOC(=O)C(C)(C)CCCCOc1ccc(OCCCCCSc2nccn2C)cc1` [Example 20]: the IC50 in experiment [1] (Mus musculus, 72 h) turned out to be 8.2 µM. Besides, the inhibition in vivo at 100 mg/kg in experiment [2] (100 mg/kg) turned out to be 52.8%.
Taken in the same sequence, the figures for `CCOC(=O)C(C)(C)CCCCOc1ccc(OCCCCCn2cncn2)cc1` [Example 48, ethyl 6-[p-[5-(1,2,4-triazol-1-yl)pentyloxy]phenoxy]-2,2-dimethylhexanoate] were 5.5 µM and 46.3%.
The corresponding values for `CCOC(=O)C(C)(C)CCCCOc1ccc(OCCCCCSc2nc3ccccc3s2)cc1` [Example 26] are 42.7 µM and 30%.
Regarding “6[p-[5-(1-imidazolyl)pentyloxy]phenoxy]-2,2-dimethylhexaneheptylamide [Example 61]”, the IC50 in experiment [1] amounted to 5.9 µM. Moreover, in experiment [2] (100 mg/kg), the “Growth Inhibition Rate” value turned out to be 38.9%.
For `Cn1nnnc1SCCCCCOc1ccc(OCCCCC(C)(C)C(N)=O)cc1` [Example 34], the IC50 in experiment [1] (Mus musculus, 72 h) is 4 µM.
As for “6-[3-[6-[5-(1-imidazolyl]pyridadyloxy]]-2,2-dimethylhexanoic acid ethyl ester [Example 60]”, the IC50 in experiment [1] was found to be 3.7 µM. For the same compound, the “Growth Inhibition Rate” value in experiment [2] (50 mg/kg) is recorded as 40.5%.
In the case of `COC(=O)CCCCC(=O)Oc1ccc(OCCCCCn2ccnc2)cc1` [Example 12], the IC50 in experiment [1] (Mus musculus, 72 h) came to 8.5 µM.
For `CC(C)(CCCCOc1ccc(OCCCCCn2ccnc2)cc1)C(=O)OCc1ccccc1` [Example 5, benzyl 6-[p-[5-(1-imidazolyl)pentyloxy]phenoxy]-2,2-dimethylhexanoate], in experiment [1] (Mus musculus, 72 h), the IC50 came to 6.3 µM. In addition, the inhibition in vivo at 100 mg/kg in experiment [2] (100 mg/kg) amounted to 39.3%.
The corresponding values for `CCOC(=O)C(C)(C)CCCCOc1ccc(OCCCCCOc2ccccn2)cc1` [Example 35, ethyl 6-[p-[5-(2-pyridyloxy)pentyloxy]phenoxy]-2,2-dimethylhexanoate] are 8.6 µM and 35.9%.
With `CC(C)(CCCCOc1ccc(OCCCCCn2ccnc2)cc1)C(=O)NCc1ccccc1` [Example 3], in experiment [1] (Mus musculus, 72 h), the half-maximal inhibitory concentration (IC50) came to 4 µM. Moreover, in experiment [2] (50 mg/kg), the inhibition in vivo at 50 mg/kg amounted to 58.5%.
`CCOC(=O)C(C)(C)CCCCOc1ccc(OCCCCCn2cccn2)cc1` [Example 16]: the IC50 in experiment [1] (Mus musculus, 72 h) amounted to 8.2 µM. The inhibition in vivo at 100 mg/kg in experiment [2] (100 mg/kg) was determined as 42.2%.
`CC(C)NC(=O)C(C)(C)CCCCOc1ccc(OCCCCCn2ccnc2)cc1` [Example 2]: the IC50 in experiment [1] (Mus musculus, 72 h) came out at 7.5 µM. Moreover, in experiment [2] (50 mg/kg), the inhibition in vivo at 50 mg/kg was 52.9%.
For `OCCCCCCOc1ccc(OCCCCCn2ccnc2)cc1` [Example 9], the IC50 in experiment [1] (Mus musculus, 72 h) is 12 µM. In addition, the inhibition in vivo at 100 mg/kg in experiment [2] (100 mg/kg) worked out at 30.7%.
Regarding `CCOC(=O)C(C)(C)CCCCOc1ccc(OCCCCCn2cnc3cncnc32)cc1` [Example 39], the IC50 in experiment [1] (Mus musculus, 72 h) stood at 4.1 µM.
On the same count and under the same terms, for `CCOC(=O)C(C)(C)CCCCOc1ccc(OCCCCCSC2=NCCS2)cc1` [Example 25] the value was 23.5 µM.
For `CCOC(=O)C(C)(C)CCCCOc1ccc(OCCCCCSc2nnc(N)s2)cc1` [Example 33], the IC50 in experiment [1] (Mus musculus, 72 h) came out at 7.7 µM. In experiment [2] (100 mg/kg), the inhibition in vivo at 100 mg/kg worked out at 59.5%.
Consider `Cn1ccnc1SCCCCCOc1ccc(OCCCCC(C)(C)C(N)=O)cc1` [Example 30], for which, in experiment [1] (Mus musculus, 72 h), the IC50 was found to be 2.3 µM. The inhibition in vivo at 100 mg/kg in experiment [2] (100 mg/kg) was 60.9%.
Taken in the same sequence, the figures for `CC(C)(CCCCOc1ccc(OCCCCCn2ccnc2)cc1)C(N)=O` [Example 1, 6-[p-[5-(1-imidazol-yl)pentyloxy]phenoxy]-2,2-dimethylhexanamide] were 7.2 µM and 68.5%.
Consider `CCOC(=O)C(C)(C)CCCCOc1ccc(OCCCCCn2cnc3ccccc32)cc1` [Example 36], for which the IC50 in experiment [1] (Mus musculus, 72 h) was determined as 3.8 µM.
Take `CCOC(=O)C(C)(C)CCCCOc1ccc(OCCCCCSc2nc3ncccc3[nH]2)cc1` [Example 43, ethyl 6-[p-[5-(1H-imidazo[4,5-b]pyridin-2-ylthio)pentyloxy]phenoxy]-2,2-dimethylhexanoate]: in experiment [1] (Mus musculus, 72 h), the IC50 was 8 µM. The inhibition in vivo at 100 mg/kg in experiment [2] (100 mg/kg) is 55.5%.
Take `CCOC(=O)C(C)(C)CCCCOc1ccc(OCCCCCSc2nccc(O)n2)cc1` [Example 28]: the IC50 in experiment [1] (Mus musculus, 72 h) is 18.9 µM.
As for `CC(C)(C#N)CCCCOc1ccc(OCCCCCn2ccnc2)cc1` [Example 55, 6-[p-[5-(1-imidazolyl)pentyloxy]phenoxy]-2,2-dimethylhexane-nitrile], the IC50 in experiment [1] (Mus musculus, 72 h) worked out at 3.8 µM. Further, in experiment [2] (50 mg/kg), the inhibition in vivo at 50 mg/kg turned out to be 63.1%.
Turning to `CC(C)(CCCCOc1ccc(OCCCCCSc2ccncc2)cc1)C(N)=O` [Example 31], the IC50 in experiment [1] (Mus musculus, 72 h) was 2.6 µM. Further, the inhibition in vivo at 100 mg/kg in experiment [2] (100 mg/kg) came to 48.9%.
Take `CC(C)(CCCCOc1ccc(OCCCCCn2ccnc2)cc1)C(=O)NC1CCCCC1` [Example 52]: in experiment [1] (Mus musculus, 72 h), the IC50 turned out to be 3.6 µM. In addition, the inhibition in vivo at 100 mg/kg in experiment [2] (100 mg/kg) is 55.7%.
For the compound `CCOC(=O)C(C)(C)CCCCOc1ccc(OCCCCCOCCc2ccccn2)cc1` [Example 18], the IC50 in experiment [1] (Mus musculus, 72 h) was found to be 9.5 µM. In addition, the inhibition in vivo at 100 mg/kg in experiment [2] (100 mg/kg) worked out at 34.9%.
Taken in the same sequence, the figures for `CCOC(=O)C(C)(C)CCCCOc1ccc(OCCCCCSc2ncnc3[nH]cnc23)cc1` [Example 32] were 2.2 µM and 57.5%.
The corresponding values for `CCOC(=O)C(C)(C)CCCCOc1ccc(OCCCCCSc2ncccn2)cc1` [Example 24, ethyl 6-[p-[5-(2-pyrimidylthio)pentyloxy]phenoxy]-2,2-dimethylhexanoate] are 20.6 µM and 31.7%.
In the case of `CCOC(=O)C(C)(C)CCCCOc1ccc(OCCCCCOCc2cccnc2)cc1` [Example 13, ethyl 6-[p-[5-(3-pyridylmethyloxy)pentyloxy]phenoxy]-2,2-dimethylhexanoate], in experiment [1] (Mus musculus, 72 h), the IC50 worked out at 7.6 µM.
Take `CC(C)(CCCCOc1ccc(OCCCCCSc2nc3cccnc3[nH]2)cc1)C(N)=O` [Example 44]: the IC50 in experiment [1] (Mus musculus, 72 h) stood at 3.7 µM. Besides, in experiment [2] (100 mg/kg), the inhibition in vivo at 100 mg/kg came out at 46.1%.
As to `CCOC(=O)C(C)(C)CCCCOc1ccc(OCCCCCSc2cccc[n+]2[O-])cc1` [Example 23], in experiment [1] (Mus musculus, 72 h), the IC50 is 6.1 µM.
Consider `CCOC(=O)C(C)(C)CCCCSc1nnc(SCCCCCn2ccnc2)s1` [Example 42, ethyl 6-[2-[5-(1-imidazolyl)pentylthio)-1,3,4-thiadiazol-5-ylthio]-2,2-dimethylhexanoate], for which the half-inhibitory concentration (IC50) in experiment [1] (Mus musculus, 72 h) is 4.4 µM. Moreover, in experiment [2] (50 mg/kg), the inhibition in vivo at 50 mg/kg worked out at 53.1%.
For the compound `CCOC(=O)C(C)(C)CCCCOc1ccc(OCCCCCOc2ccncc2)cc1` [Example 41], the IC50 in experiment [1] (Mus musculus, 72 h) was 7.4 µM. For the same compound, the inhibition in vivo at 100 mg/kg in experiment [2] (100 mg/kg) turned out to be 38.7%.
For `CCOC(=O)C(C)(C)CCCCOc1ccc(OCCCCCSc2nc3ccccc3[nH]2)cc1` [Example 27], the IC50 in experiment [1] (Mus musculus, 72 h) stood at 4.2 µM.
Turning to `CCOC(=O)C(C)(C)CCCCOc1ccc(OCCCCCOc2ccccc2-c2ccccc2)cc1` [Example 40], the inhibition in vivo at 100 mg/kg in experiment [2] (100 mg/kg) stood at 46.9%.
In the case of `CCOC(=O)C(C)(C)CCCCOc1cccc(OCCCCCn2ccnc2)c1` [Example 37], the IC50 in experiment [1] (Mus musculus, 72 h) was determined as 4.6 µM.
As for `CCOC(=O)C(C)(C)CCCCOc1ccc(OCCCCCOc2cccnc2)cc1` [Example 14], the IC50 in experiment [1] (Mus musculus, 72 h) was 4.2 µM.
Consider `CCOC(=O)COc1ccc(OCCCCCn2ccnc2)cc1` [Example 10, ethyl p-[5-(1-imidazol-yl)pentyloxy]phenoxyacetate], for which, in experiment [2] (100 mg/kg), the inhibition in vivo at 100 mg/kg is 23.7%.
For the compound `CNC(=O)C(C)(C)CCCCOc1ccc(OCCCCCn2ccnc2)cc1` [Example 49, 6-[p-[5-(1-imidazolyl)pentyloxy]phenoxy]-2,2-dimethylhexanoic acid methylamide], the IC50 in experiment [1] (Mus musculus, 72 h) was determined as 5.5 µM.
For `CN(C)C(=O)C(C)(C)CCCCOc1ccc(OCCCCCn2ccnc2)cc1` [Example 50], in experiment [1] (Mus musculus, 72 h), the IC50 was 1.8 µM.

These data come from patent publication US4891432A, “Phenoxy imidazole compound” (Yamanouchi Pharmaceutical Co., Ltd., priority 1986, dated 1990).
